Some results are limits rather than exact numbers.

The target in data set [1] is T1, AKT1/PKBα (Homo sapiens, UniProt P31749).
T1 construct: purchased
Description: Akt1 enzyme inhibitory activity, AKT1/PKBα KinEASE FP Fluorescein Green Assay. It is filed as biochemical. The settings on record: fluorescence polarization kit assay; read-out: Akt1 IC50 (grade). How it is done: Compound AZD5363 (NCT02208375, NCT02208375, NCT01625286), which have entered the clinical phase II study, was used as a positive control, and the compound was assayed against common tumour cell lines (human ovarian cancer cell line OVCAR-8 and human colon cancer cell line HCT-116) by MTT assay, at the same time, the akt1 enzyme inhibitory activity (IC50) was evaluated using a commercial Akt1 kit.
2) Test method for the inhibitory activity of the compound of the present invention against Akt1 enzyme:
The AKT1/PKBα KinEASE™ FP Fluorescein Green Assay (Kinase Green Fluorescence Detection System) was used to detect the inhibitory activity of the compound on AKT1/PKBα.
Fluorescence polarization detection protein kinase B employs the principle of a competitive reaction: a fluorescently labeled phosphorylated tracer and an unlabeled phosphorylated product produced by the reaction of protein kinase B will compete with the anti-serine antibody for binding. In a reaction mixture […], when a part of the fluorescent tracer binds to the antibody, it causes a higher polarization value. However, in the reaction solution mixture containing the phosphorylated product, less tracer binds to the antibody (the fluorescent tracer was replaced from the antibody) and the emitted signal was depolarized. Therefore, the change in polarization was directly related to the activity of protein kinase B in the reaction.
The compound of the present invention and the positive control AZD5363 were dissolved in dimethyl sulfoxide (DMSO) and diluted to a concentration of 50 μM. At room temperature, 0.25 μl of the compound sample and the positive control at a concentration of 50 μM were taken and added to the 384-well plate, and three parallel wells were set for each sample, and then 10 μl of STK Substrate 3, Working Solution, 5 μl AKT1/PKBα Working Solution, 10 μl ATP Working Solution were added to each sample well plate with vibrating gently and shaking for a few minutes. The reaction starts after 10 μl of ATP Working Solution was added to the well, and the reaction was timed at room temperature for 1 hour. After one hour, 5 μl of STK Stop Mix and 5 μl of STK Antibody Mix were added to each well respectively to stop the reaction. After the addition completes, it was allowed to stand at room temperature for four hours, and the polarization value of the sample was detected by the fluorescence polarization of the microplate reader (it was effective to detect its signal within 24 hours), and the inhibition rate of the compound was calculated by the polarization value, and then IC50 was calculated.
Four sets of controls were set in the experiment, namely Buffer Control Wells, Tracer Control Wells, No Enzyme Wells, and a blank dimethyl sulfoxide control. The resulting data was used to calculate the inhibition rate.
The activity of the compound was divided into three grades according to the size of the IC50 of the Akt inhibitory activity: “+++”, 1 nM<IC50<10 nM; “++”, 10 nM<IC50<50 nM; “+”, 50 nM<IC50.
Background: Fluorescence polarisation rises when a labelled molecule tumbles more slowly, as on binding a larger partner.

Data set [2] deals with HGC27. Description: Tumour cell proliferation inhibition, MTT assay, HGC27. It is filed as cell-based, human. Conditions: Homo sapiens, HGC-27, 72 h.
In data set [3] the test system is CEM-C1. In words: Tumour cell proliferation inhibition, MTT assay, CEM-C1. Conditions: Homo sapiens, CEM/C1, 72 h. The data set is classed as cell-based, human.
Data set [4] in a line: Oral pharmacokinetic experiment in SD rats. The data set is classed as in vivo. The settings on record: oral administration. How it is done: […] The blood sampling times of the tail vein administered by intragastric administration were 0.25, 0.5, 1, 2, 4, 6, 8, 10, 24 hours; the times of blood collection by intravenous administration were 0.05, 0.1, 0.17, 0.5, 1, 2, 4, 6, 8, 10, 24 hours. 0.3 ml of whole blood was taken, and after centrifugation, 0.1 ml of plasma was taken and analysed by LC-MS.

[5] abbreviates: rat, in vivo, 20 mg/kg, mean n = 3.

T1 sequence (P31749 whole entry): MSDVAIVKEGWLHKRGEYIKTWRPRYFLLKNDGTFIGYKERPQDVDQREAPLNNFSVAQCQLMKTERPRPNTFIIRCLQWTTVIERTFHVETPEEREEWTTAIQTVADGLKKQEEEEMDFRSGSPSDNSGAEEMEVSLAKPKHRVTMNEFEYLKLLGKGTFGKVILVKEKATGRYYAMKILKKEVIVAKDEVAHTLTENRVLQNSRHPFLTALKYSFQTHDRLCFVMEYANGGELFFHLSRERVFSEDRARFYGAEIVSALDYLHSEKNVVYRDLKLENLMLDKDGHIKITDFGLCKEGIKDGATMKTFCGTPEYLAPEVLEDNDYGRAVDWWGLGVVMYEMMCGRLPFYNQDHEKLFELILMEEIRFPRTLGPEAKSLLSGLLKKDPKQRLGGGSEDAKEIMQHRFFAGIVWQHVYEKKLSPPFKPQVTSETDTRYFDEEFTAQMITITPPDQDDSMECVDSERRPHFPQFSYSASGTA

As usually defined, the IC50 is the point on the concentration scale where inhibition reaches its midpoint. In the case of `Cn1nccc1-c1ccc(C(=O)N[C@H]2CNCC[C@@H]2c2ccc(F)c(F)c2)c(F)c1` [VII-1b, 4-(1-methyl-1H-pyrazole-yl)-N-((3R,4R)-(3,4-difluorophenyl)piperidin-3-yl)-2-fluorobenzamide], in data set [1], the 50% inhibitory concentration (IC50) was in the range of 10 to 50 nM.
As for `Cn1ncc(Cl)c1-c1ccc(C(=O)N[C@@H]2CNCC[C@H]2c2ccc(F)c(F)c2)c(F)c1` [VII-2, 4-(1-methyl-4-chloro-1H-pyrazole-yl)-N-((3S,4S)-(3,4-difluorophenyl)piperidin-3-yl)-2-fluorobenzamide], the IC50 is 10 to 50 nM in data set [1] and 70 nM in data set [2].
For `Cc1cnn(C)c1-c1ccc(C(=O)N[C@@H]2CNCC[C@H]2c2ccc(F)c(F)c2)c(F)c1` [VII-3, 4-(1,4-dimethyl-1H-pyrazole-yl)-N-((3S,4S)-4-(3,4-difluorophenyl)piperidin-3-yl)-2-fluorobenzamide], the IC50 is 160 nM in data set [3], 10 to 50 nM in data set [1] and 90 nM in data set [2].
`Cn1ncc(C2CC2)c1-c1ccc(C(=O)N[C@@H]2CNCC[C@H]2c2ccc(F)c(F)c2)c(F)c1` [VII-4]: in data set [1], the IC50 is more than 50 nM.
Regarding `Cn1ncc(Br)c1-c1ccc(C(=O)N[C@@H]2CNCC[C@H]2c2ccc(F)c(F)c2)c(F)c1` [VII-6, 4-(1-methyl-4-bromo-1H-pyrazole-yl)-N-((3S,4S)-(3,4-difluorophenyl)piperidin-3-yl)-2-fluorobenzamide], the IC50 in data set [3] was 150 nM; in data set [1], 10 to 50 nM; in data set [2] it was 40 nM.
The corresponding values for `Cn1nccc1-c1ccc(C(=O)N[C@@H]2CNCC[C@H]2c2c(F)c(F)cc(F)c2F)c(F)c1` [VII-9, 4-(1-methyl-1H-pyrazole-yl)-N-((3S,4S)-(2,3,5,6-tetrafluorophenyl)piperidin-3-yl)-2-fluorobenzamide] are 210 nM, 10 to 50 nM and 80 nM.
Take `Cn1nccc1-c1cc(F)c(C(=O)N[C@@H]2CNCC[C@H]2c2ccc(F)c(F)c2)c(F)c1F` [VII-13, 4-(1-methyl-1H-pyrazole-yl)-N-((3S,4S)-4-(3,4-difluorophenyl)piperidin-3-yl)-2,3,6-trifluorobenzamide]: the IC50 in data set [1] is more than 50 nM.
For the molecule `Cn1nccc1-c1cc(F)c(C(=O)N[C@@H]2CNCC[C@H]2c2ccc(F)c(F)c2)c(Cl)c1` [VII-14], the IC50 in data set [3] was 180 nM; in data set [1], 10 to 50 nM; in data set [2] it was 100 nM.
In the case of `Cc1cc(-c2ccnn2C)cc(F)c1C(=O)N[C@@H]1CNCC[C@H]1c1ccc(F)c(F)c1` [VII-15, 4-(1-methyl-1H-pyrazole-yl)-N-((3S,4S)-4-(3,4-difluorophenyl)piperidin-3-yl)-2-methyl-6-fluorobenzamide], the IC50 in data set [1] is more than 50 nM.
Regarding `Cn1nccc1-c1cc(F)c(C(=O)N[C@@H]2CNCC[C@H]2c2ccc(F)c(F)c2)c(C(F)(F)F)c1` [VII-16, 4-(1-methyl-1H-pyrazole-yl)-N-((3S,4S)-4-(3,4-difluorophenyl)piperidin-3-yl)-2-trifluoromethyl-6-fluorobenzamide], the IC50 in data set [3] was 110 nM; in data set [1], 10 to 50 nM; in data set [2], 80 nM.
For `Cn1nccc1-c1ccc(C(=O)N[C@@H]2CNCC[C@H]2c2ccc(F)c(F)c2)c(F)c1F` [VII-17, 4-(1-methyl-1H-pyrazole-yl)-N-((3S,4S)-4-(3,4-difluorophenyl)piperidin-3-yl)-2,3-difluorobenzamide], in that order: 90 nM, 10 to 50 nM and 40 nM.
The corresponding values for `Cn1ncc(Cl)c1-c1ccc(C(=O)N[C@@H]2CNC[C@H]2c2ccc(F)c(F)c2)c(F)c1` [VII-19, 4-(1-methyl-4-chloro-1H-pyrazole-yl)-N-((3S,4R)-(3,4-difluorophenyl)pyrrolidin-3-yl)-2-fluorobenzamide] are 60 nM, 10 to 50 nM and 20 nM.
The corresponding values for `Cn1nccc1-c1cc(F)c(C(=O)N[C@@H]2CNC[C@H]2c2ccc(F)c(F)c2)c(F)c1` [VII-21, 4-(1-methyl-1H-pyrazole-yl)-N-((3S,4R)-(3,4-difluorophenyl)pyrrolidin-3-yl)-2,6-difluorobenzamide] are 150 nM, 10 to 50 nM and 80 nM.
As to `Cn1nccc1-c1ccc(S(=O)(=O)N[C@@H]2CNCC[C@H]2c2ccc(F)c(F)c2)c(F)c1` [VII-23, N-((3S,4S)-4-(3,4-difluorophenyl)piperidin-3-yl)-2-fluoro-4-(1-methyl-1H-pyrazol-5-yl)benzenesulfonamide], the IC50 in data set [1] is more than 50 nM.
For the molecule `Cn1ncnc1-c1ccc(C(=O)N[C@@H]2CNCC[C@H]2c2ccc(F)c(F)c2)c(F)c1` [VII-26], the IC50 in data set [3] was 70 nM; in data set [1], 10 to 50 nM; in data set [2], 70 nM.
As for `CCn1nccc1-c1ccc(C(=O)N[C@@H]2CNCC[C@H]2c2ccc(F)c(F)c2)c(F)c1` [VII-27, 4-(1-ethyl-1H-pyrazole-yl)-N-((3S,4S)-4-(3,4-difluorophenyl)piperidin-3-yl)-2-fluorobenzamide], the IC50 was 130 nM in data set [3], 10 to 50 nM in data set [1] and 90 nM in data set [2].
For `O=C(N[C@@H]1CNCC[C@H]1c1ccc(F)c(F)c1)c1ccc(-c2ccnn2C2CC2)cc1F` [VII-28, 4-(1-cyclopropyl-1H-pyrazol-yl)-N-((3S,4S)-4-(3,4-difluorophenyl)piperidin-3-yl)-2-fluorobenzamide], the IC50 in data set [3] was 100 nM; in data set [1], 10 to 50 nM; in data set [2], 50 nM.
For `[2H]C([2H])([2H])n1nccc1-c1ccc(C(=O)N[C@@H]2CNCC[C@H]2c2ccc(F)c(F)c2)c(F)c1` [VII-29, 4-(1-(methyl-d3)-1H-pyrazol-yl)-N-((3S,4S)-4-(3,4-difluorophenyl)piperidin-3-yl)-2 fluorobenzamide], in that order: 60 nM, 10 to 50 nM and 40 nM.
Broadly, the Cmax is the highest concentration seen after dosing. In general, Tmax refers to the time at which the peak concentration occurs. As for `Cn1nccc1-c1ccc(C(=O)N[C@@H]2CNCC[C@H]2c2ccc(F)c(F)c2)c(F)c1.O=C(O)C(O)C(O)C(=O)O` [VII-33], in data set [4] (20 mg/kg, mean n = 3), the “1/2” value is given as 3.69 h, the AUC0-inf was 2160 ng·h/mL and the AUC0-t is 1950 ng·h/mL. Also, the “improvement of AUC0-t over VII-1a” value in data set [4] (salt versus free form VII-1a) is on record as 30%. Besides, in data set [4] (setting [5]), the concentration peaked (Cmax) at 200 ng/mL and the Tmax was determined as 4 h.

(Values after US11319300B2, “Polyfluoro-substituted aromatic heterocyclic derivative, pharmaceutical composition containing same, and applications thereof” (ZHEJIANG UNIVERSITY, priority 2017, dated 2022).)
